The values below come from ChEMBL document CHEMBL1145163, “Structure-based design, synthesis, and memapsin 2 (BACE) inhibitory activity of carbocyclic and heterocyclic peptidomimetics” (J Med Chem, 2005).

Starred links: 1 amine or outer side, 2 acyl side, 3 side chain; linkers in the order of their positions; H or OH if unused. Non-standard residues stand in square brackets, D forms with d. Residues, ends and D or L forms follow the SMILES beside them. LeuΨ(S-CHOHCH2)Ala = CC(C)C[C@H](N[*:1])[C@@H](O)C[C@@H](C)C(=O)[*:2]; X1 = CC(C)C[C@H](N[*:1])[C@@H](O)[C@@H]1CCC[C@H]1C(=O)[*:2] Bounds are passed on as bounds.

Test [1] addresses T1, Cathepsin D (Homo sapiens, UniProt P07339). Put plainly: Inhibitory concentration against human Cathepsin D.
In test [2] the target is T2, Beta-secretase 1 (Homo sapiens, UniProt P56817). Put plainly: Inhibitory concentration against human Membrane-associated aspartic protease 2.
T2 sequence (P56817 whole entry): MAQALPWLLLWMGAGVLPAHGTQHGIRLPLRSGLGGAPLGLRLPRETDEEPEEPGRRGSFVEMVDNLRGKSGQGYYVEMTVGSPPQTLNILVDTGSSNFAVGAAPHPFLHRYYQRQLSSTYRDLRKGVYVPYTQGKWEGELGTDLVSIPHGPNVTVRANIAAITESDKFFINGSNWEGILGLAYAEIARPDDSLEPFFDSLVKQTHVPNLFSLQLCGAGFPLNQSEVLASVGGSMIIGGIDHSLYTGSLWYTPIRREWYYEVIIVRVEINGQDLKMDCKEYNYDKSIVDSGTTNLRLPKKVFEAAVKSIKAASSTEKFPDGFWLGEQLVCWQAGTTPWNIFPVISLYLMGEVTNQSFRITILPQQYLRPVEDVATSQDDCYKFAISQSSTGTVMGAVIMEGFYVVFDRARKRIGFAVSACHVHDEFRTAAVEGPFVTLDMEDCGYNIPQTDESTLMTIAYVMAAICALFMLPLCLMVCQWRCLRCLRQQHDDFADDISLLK
The target in test [3] is T1, Cathepsin D. Put plainly: Inhibitory activity against human Cathepsin D at 0.01 uM.
Test [4] addresses T2, Beta-secretase 1. Put plainly: Inhibitory activity against human beta-site APP-cleaving enzyme 1 at 0.01 uM.

T1 sequence (P07339 65-162 limits assumed): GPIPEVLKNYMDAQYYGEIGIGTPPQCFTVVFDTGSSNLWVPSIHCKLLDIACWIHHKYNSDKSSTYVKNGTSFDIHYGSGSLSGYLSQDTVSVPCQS
T1 sequence (P07339 169-412 limits assumed): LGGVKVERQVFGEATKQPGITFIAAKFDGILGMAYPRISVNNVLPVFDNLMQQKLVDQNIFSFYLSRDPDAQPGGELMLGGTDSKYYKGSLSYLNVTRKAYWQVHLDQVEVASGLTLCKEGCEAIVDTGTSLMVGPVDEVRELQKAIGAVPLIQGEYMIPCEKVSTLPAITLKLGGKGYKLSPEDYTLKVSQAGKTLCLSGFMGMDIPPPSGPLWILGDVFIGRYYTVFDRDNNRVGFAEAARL

For the molecule `CC(C)C[C@H](NC(=O)[C@H](CC(N)=O)NC(=O)[C@@H](NC(=O)[C@@H](N)CCC(=O)O)C(C)C)[C@@H](O)[C@@H]1CCC[C@H]1C(=O)N[C@@H](C)C(=O)O` (H-EVN[X1]A-OH), half-maximal inhibition on Cathepsin D [1] (IC50) was put at 6 µM.
For the molecule `CSCC[C@H](NC(=O)[C@H](CC(C)C)NC(C)=O)C(=O)N[C@@H](CC(C)C)[C@@H](O)[C@@H]1CCC[C@H]1C(=O)N[C@H](C(=O)O)C(C)C`, the concentration for half-maximal inhibition (IC50) (usually the concentration that inhibits the measured activity by half) on Cathepsin D [1] amounted to 0.025 µM; against Beta-secretase 1 [2], 0.19 µM.
For the molecule `CC(C)C[C@H](NC(=O)[C@H](CC(N)=O)NC(=O)[C@@H](NC(=O)[C@@H](N)CCC(=O)O)C(C)C)[C@@H](O)[C@@H]1CCC[C@H]1C(=O)N[C@@H](C)C(=O)N[C@@H](CCC(=O)O)C(=O)O` (H-EVN[X1]AE-OH), the IC50 at Cathepsin D [1] was 0.06 µM; on Beta-secretase 1 [2] it was 0.04 µM.
For `CCCCNC(=O)[C@@H](NC(=O)[C@@H]1CC(=O)C[C@H]1[C@H](O)[C@H](CC(C)C)NC(=O)[C@H](CCSC)NC(=O)[C@H](CC(C)C)NC(C)=O)C(C)C`, the IC50 on Cathepsin D [1] worked out at 0.056 µM.
Regarding `CCCCNC(=O)[C@@H](NC(=O)[C@@H]1CCC[C@H]1[C@H](O)[C@H](CC(C)C)NC(=O)[C@H](CCSC)NC(=O)[C@H](CC(C)C)NC(C)=O)C(C)C`, the inhibition (as a rule, the drop in the measured response relative to a control, in per cent) at Cathepsin D [3] is 100%. The IC50 on Cathepsin D [1] is under 0.01 µM; against Beta-secretase 1 [2] it was 0.025 µM.
`CCCCNC(=O)[C@H](C)NC(=O)[C@@H]1CCC[C@H]1[C@H](O)[C@H](CC(C)C)NC(=O)[C@H](CCSC)NC(=O)[C@H](CC(C)C)NC(C)=O` yielded an inhibition at Cathepsin D [3] of 95%. The results for the IC50 on Cathepsin D [1] and on Beta-secretase 1 [2] were under 0.01 µM and 0.185 µM, respectively.
For the molecule `CC(C)C[C@H](NC(=O)[C@H](CC(N)=O)NC(=O)[C@@H](NC(=O)[C@@H](N)CCC(=O)O)C(C)C)[C@@H](O)C[C@@H](C)C(=O)N[C@@H](C)C(=O)O` (H-EVN[LeuΨ(S-CHOHCH2)Ala]A-OH), the half-inhibitory concentration (IC50) against Cathepsin D [1] is 0.098 µM; on Beta-secretase 1 [2] it was 0.012 µM.
For the molecule `CCCCNC(=O)[C@@H](NC(=O)[C@H]1[C@H]([C@H](O)[C@H](CC(C)C)NC(=O)[C@H](CCSC)NC(=O)[C@H](CC(C)C)NC(C)=O)CC(=O)N1C)C(C)C`, the values for the IC50 against Cathepsin D [1] and against Beta-secretase 1 [2] were 0.07 µM and under 0.01 µM, respectively. On Beta-secretase 1 [4], this molecule came in with an inhibition of 79%.
For the molecule `CCCCNC(=O)[C@@H](NC(=O)[C@@H]1OCC[C@H]1[C@H](O)[C@H](CC(C)C)NC(=O)[C@H](CCSC)NC(=O)[C@H](CC(C)C)NC(C)=O)C(C)C`, the IC50 at Cathepsin D [1] was found to be 0.28 µM; against Beta-secretase 1 [2] it was 9.56 µM.
`C=C1C[C@@H]([C@H](O)[C@H](CC(C)C)NC(=O)[C@H](CCSC)NC(=O)[C@H](CC(C)C)NC(C)=O)[C@H](C(=O)N[C@@H](C)C(=O)O)C1`: the values for the 50% inhibitory concentration (IC50) at Cathepsin D [1] and against Beta-secretase 1 [2] were 0.43 µM and over 10 µM, respectively.
On to `CCCCNC(=O)[C@@H](NC(=O)[C@@H]1CN(C)C[C@H]1[C@H](O)[C@H](CC(C)C)NC(=O)[C@H](CCSC)NC(=O)[C@H](CC(C)C)NC(C)=O)C(C)C`, for which the IC50 at Cathepsin D [1] came out at 1.23 µM; at Beta-secretase 1 [2], 3.44 µM.
Consider `CC(C)C[C@H](NC(=O)[C@H](CC(N)=O)NC(=O)[C@@H](NC(=O)[C@@H](N)CCC(=O)O)C(C)C)[C@@H](O)C[C@@H](C)C(=O)N[C@@H](C)C(=O)N[C@@H](CCC(=O)O)C(=O)N[C@@H](Cc1ccccc1)C(=O)O` (H-EVN[LeuΨ(S-CHOHCH2)Ala]AEF-OH), for which the IC50 on Cathepsin D [1] was determined as 0.006 µM.
For `CCCCNC(=O)[C@@H]1CCC[C@H]1[C@H](O)[C@H](CC(C)C)NC(=O)[C@H](CCSC)NC(=O)[C@H](CC(C)C)NC(C)=O`, the 50% inhibitory concentration (IC50) at Cathepsin D [1] worked out at 0.06 µM; against Beta-secretase 1 [2], 1.82 µM.
For the molecule `CSCC[C@H](NC(=O)[C@H](CC(C)C)NC(C)=O)C(=O)N[C@@H](CC(C)C)[C@@H](O)[C@@H]1CCC[C@H]1C(=O)N[C@@H](C)C(=O)O`, the IC50 on Cathepsin D [1] was 0.09 µM; against Beta-secretase 1 [2] it was 0.06 µM.
With `CSCC[C@H](NC(=O)[C@H](CC(C)C)NC(C)=O)C(=O)N[C@@H](CC(C)C)[C@@H](O)[C@@H]1CC(=O)C[C@H]1C(=O)N[C@@H](C)C(=O)O`, the 50% inhibitory concentration (IC50) against Cathepsin D [1] worked out at 1.5 µM; at Beta-secretase 1 [2] it was 0.72 µM.
At Cathepsin D [3], `CC(C)C[C@H](NC(=O)[C@H](CC(N)=O)NC(=O)[C@@H](NC(=O)[C@@H](N)CCC(=O)O)C(C)C)[C@@H](O)[C@@H]1CCC[C@H]1C(=O)N[C@@H](C)C(=O)N[C@@H](CCC(=O)O)C(=O)N[C@@H](Cc1ccccc1)C(=O)O` [CARBOCYCLIC PEPTIDOMIMETIC] (H-EVN[X1]AEF-OH) yielded an inhibition of 90%. The IC50 is under 0.01 µM against Cathepsin D [1] and 0.016 µM on Beta-secretase 1 [2].
In the case of `CCCCNC(=O)[C@@H](NC(=O)[C@@H]1C(=O)N(CC)C[C@H]1[C@H](O)[C@H](CC(C)C)NC(=O)[C@H](CCSC)NC(=O)[C@H](CC(C)C)NC(C)=O)C(C)C`, the IC50 against Cathepsin D [1] was 0.13 µM; at Beta-secretase 1 [2] it was 3.35 µM.
